Literature values as cited in paper PMC12304798 (British Journal of Clinical Pharmacology, 2025).
Like-named read-outs stand apart in the source and are kept apart here.

How the values were obtained:
NE activity [1] = conditions: once-daily doses, healthy volunteers
NE activity [2] = tested on: NE activity
[3] = healthy Japanese and Caucasian volunteers

Row | Compound | reduction in NE activity (NE activity [1]) | inhibitory effect on NE activity (NE activity [2]; brensocatib 10 mg) [%] | inhibitory effect on NE activity (NE activity [2]; brensocatib 25 mg) [%] | skin exfoliation, share of volunteers [3] [%]
1 | CC[C@@H](/C=C/C(=O)N1CCc2ccccc21)NC(=O)C1(N)CCOCC1 [GSK2793660] | approximately 20% |  |  | 
2 | Cn1c(=O)oc2ccc(-c3ccc(C[C@@H](C#N)NC(=O)[C@@H]4CNCCCO4)cc3)cc21 [brensocatib] |  | 30 | 49 | 10
